Laboratory results taken from patent US20220227707A1, “COMPOUNDS AND COMPOSITIONS FOR TREATING CONDITIONS ASSOCIATED WITH NLRP ACTIVITY” (Novartis AG, priority 2019, published 2022).

Tested on: IL-1β production in PMA-differentiated THP-1 cells
Assay: IL-1β production in PMA-differentiated THP-1 cells stimulated with gramicidin (hTHP-1 assay)
Assay type: cell-based, human
Procedure: Procedure 1: IL-1β Production in PMA-Differentiated THP-1 Cells Stimulated with Gramicidin
THP-1 cells were purchased from the American Type Culture Collection and sub-cultured according to instructions from the supplier. Cells were cultured in complete RPMI 1640 (containing 10% heat inactivated FBS, penicillin (100 units/ml) and streptomycin (100 μg/ml)), and maintained in log phase prior to experimental setup. Prior to the experiment, compounds were dissolved in dimethyl sulfoxide (DMSO) to generate a 30 mM stock. The compound stock was first pre-diluted in DMSO to 3, 0.34, 0.042 and 0.0083 mM intermediate concentrations and subsequently spotted using Echo550 liquid handler into an empty 384-well assay plate to achieve desired final concentration (e.g. 100, 33, 11, 3.7, 1.2, 0.41, 0.14, 0.046, 0.015, 0.0051, 0.0017 μM). DMSO was backfilled in the plate to achieve a final DMSO assay concentration of 0.37%. The plate was then sealed and stored at room temperature until required.
THP-1 cells were treated with PMA (Phorbol 12-myristate 13-acetate) (20 ng/ml) for 16-18 hours. On the day of the experiment the media was removed and adherent cells were detached with trypsin for 5 minutes. Cells were then harvested, washed with complete RPMI 1640, spun down, and resuspended in RPMI 1640 (containing 2% heat inactivated FBS, penicillin (100 units/ml) and streptomycin (100 μg/ml). The cells were plated in the 384-well assay plate containing the spotted compounds at a density of 50,000 cells/well (final assay volume 50 μl). Cells were incubated with compounds for 1 hour and then stimulated with gramicidin (5 μM) (Enzo) for 2 hours. Plates were then centrifuged at 340 g for 5 min. Cell free supernatant ([…]) was collected using a 96-channel PlateMaster (Gilson) and the production of IL-1β was evaluated by HTRF (cisbio). The plates were incubated for 18 h at 4° C. and read using the preset HTRF program (donor emission at 620 nm, acceptor emission at 668 nm) of the SpectraMax i3x spectrophotometer (Molecular Devices, software SoftMax 6). A vehicle only control and a dose titration of CRID3 (100-0.0017 μM) were run concurrently with each experiment.
Procedure 2: […] Production in PMA-Differentiated THP-1 Cells Stimulated with Gramicidin
THP-1 cells were purchased from the American Type Culture Collection and sub-cultured according to instructions from the supplier. Prior to experiments, cells were cultured in complete RPMI 1640 (containing 10% heat inactivated FBS, penicillin (100 units/ml) and streptomycin (100 μg/ml)), and maintained in log phase prior to experimental setup. Prior to the experiment THP-1 were treated with PMA (Phorbol 12-myristate 13-acetate) (20 ng/ml) for 16-18 hours. Compounds were dissolved in dimethyl sulfoxide (DMSO) to generate a 30 mM stock. On the day of the experiment the media was removed and adherent cells were detached with trypsin for 5 minutes. Cells were then harvested, washed with complete RPMI 1640, spun down, resuspended in RPMI 1640 (containing 2% heat inactivated FBS, penicillin (100 units/ml) and streptomycin (100 μg/ml). The cells were plated in a 384-well plate at a density of 50,000 cells/well (final assay volume 50 μl). Compounds were first dissolved in assay medium to obtain a 5× top concentration of 500 μM. 10 step dilutions (1:3) were then undertaken in assay medium containing 1.67% DMSO. 5× compound solutions were added to the culture medium to achieve desired final concentration (e.g. 100, 33, 11, 3.7, 1.2, 0.41, 0.14, 0.046, 0.015, 0.0051, 0.0017 μM). Final DMSO concentration was at 0.37%. Cells were incubated with compounds for 1 hour and then stimulated with gramicidin (5 μM) (Enzo) for 2 hours. Plates were then centrifuged at 340 g for 5 min. Cell free supernatant (40 μL) was collected using a 96-channel PlateMaster (Gilson) and the production of IL-1β was evaluated by HTRF (cisbio). A vehicle only control and a dose titration of CRID3 (100-0.0017 μM) were run concurrently with each experiment. […]

[1] = Homo sapiens, THP-1, Average IC50, hTHP-1 assay containing 2% fetal bovine serum, Table 10, numeric values
[2] = Average IC50, hTHP-1 assay containing 2% fetal bovine serum, Table 10, class symbols
[3] = Homo sapiens, THP-1, Average IC50, hTHP-1 assay containing 2% fetal bovine serum, Table 10, class symbols
[4] = Average IC50, hTHP-1 assay containing 2% fetal bovine serum, Table 10, numeric values
[5] = Homo sapiens, THP-1, Average IC50, hTHP-1 assay containing 2% fetal bovine serum, Table 3B, class symbols

| Structure (SMILES) | IC50 [1] | other results |
| --- | --- | --- |
| CC(C)c1cc(F)cc(C(C)C)c1CC(=O)NS(=O)(=O)Cc1ccccc1C(=O)O [Compound 517] | > 100 µM |  |
| CC(C)(O)c1ccc(CS(N)(=O)=NC(=O)Nc2c3c(cc4c2CCC4)CCC3)cc1 (single isomer, unassigned) [Compound 165a] |  | IC50 [2]: 1 to 5 µM |
| CC(C)c1cc(F)cc(C(C)C)c1CC(=O)N=S(N)(=O)CCCN(C)C (stereo not shown) [Compound 301] | > 30 µM |  |
| NS(=O)(=NC(=O)Nc1c2c(cc3c1CCC3)CCC2)C1Cc2ccccc2C1 (single isomer, unassigned) [Compound 130] | > 30 µM |  |
| CN(C)CCCC(=O)NS(C)(=O)=NC(=O)Nc1c2c(cc3c1CCC3)CCC2 (single isomer, unassigned) [Compound 118, 4-(dimethylamino)-N—(N-((1,2,3,5,6,7-hexahydro-s-indacen-4-yl)carbamoyl)-S-methylsulfonimidoyl)butanamide] | > 30 µM |  |
| NS(=O)(=NC(=O)Nc1c2c(cc3c1CCC3)CCC2)C1CCC1 (single isomer, unassigned) [Compound 145] | > 30 µM |  |
| CC(CN(C)C)CS(N)(=O)=NC(=O)Nc1c2c(cc3c1CCC3)CCC2 (single isomer, unassigned) [Compound 124, 3-(dimethylamino)-N′-((1,2,3,5,6,7-hexahydro-s-indacen-4-yl)carbamoyl)-2-methylpropane-1-sulfonimidamide] | > 30 µM |  |
| CC(C)c1cc(F)cc(C(C)C)c1CC(=O)NS(=O)(=O)Cc1ccccc1 [Compound 511] | > 100 µM |  |
| CN(C)Cc1ccc(CS(N)(=O)=NC(=O)Nc2c3c(cc4c2CCC4)CCC3)cc1 (stereo not shown) [Compound 104, 1-(4-((dimethylamino)methyl)pheny1)-N′-((1,2,3,5,6,7-hexahydro-s-indacen-4-yl)carbamoyl) methane-sulfonimidamide] |  | IC50 [3]: 1 to 5 µM |
| CN(C)Cc1ccc(CS(N)(=O)=NC(=O)Nc2c3c(cc4c2CCC4)CCC3)cc1 (single isomer, unassigned) [Compound 106] |  | IC50 [3]: 1 to 5 µM |
| COC(=O)CS(=O)(=O)NC(=O)Cc1c(C(C)C)cc(F)cc1C(C)C [Compound 501] | > 100 µM |  |
| CC(C)c1cc(F)cc(C(C)C)c1CC(=O)N=S(N)(=O)C1CC1 (stereo not shown) [Compound 307] |  | IC50 [3]: 0.008 to 0.04 µM |
| CC(C)c1cc(F)cc(C(C)C)c1CC(=O)NS(=O)(=O)Cc1cccnc1 [Compound 522] | > 100 µM |  |
| CC(C)c1cc(F)cc(C(C)C)c1NC(=O)NS(=O)(=O)C1CC1 [Compound 401] | 31.5 µM |  |
| CC(CN(C)C)CS(N)(=O)=NC(=O)Nc1c2c(cc3c1CCC3)CCC2 (stereo not shown) [Compound 123, 3-(dimethylamino)-N′-((1,2,3,5,6,7-hexahydro-s-indacen-4-yl)carbamoyl)-2-methylpropane-1-sulfonimidamide] |  | IC50 [2]: 5 to 30 µM |
| NS(=O)(=NC(=O)Nc1c2c(cc3c1CCC3)CCC2)C1CCCC1 (stereo not shown) [Compound 152] |  | IC50 [4]: > 30 µM |
| NS(=O)(=NC(=O)Nc1c2c(cc3c1CCC3)CCC2)C1CC1 (stereo not shown) [Compound 156, N′-((1,2,3,5,6,7-hexahydro-s-indacen-4-yl)carbamoyl) cyclopropane-sulfonimidamide] | > 30 µM |  |
| CN1CCC(S(N)(=O)=NC(=O)Nc2c3c(cc4c2CCC4)CCC3)CC1 (stereo not shown) [Compound 140] |  | IC50 [4]: > 30 µM |
| CC(C)c1ncc(CS(=O)(=O)NC(=O)Cc2c(C(C)C)cc(F)cc2C(C)C)s1 [Compound 505] | > 97.1 µM |  |
| NS(=O)(=NC(=O)Nc1c2c(cc3c1CCC3)CCC2)C1Cc2ccccc2C1 (single isomer, unassigned) [Compound 129] |  | IC50 [3]: 5 to 30 µM |
| CS(N)(=O)=NC(=O)Nc1c2c(cc3c1CCC3)CCC2 (single isomer, unassigned) [Compound 117] |  | IC50 [3]: 5 to 30 µM |
| CC(CN(C)C)CS(N)(=O)=NC(=O)Nc1c2c(cc3c1CCC3)CCC2 (stereo not shown) [Compound 121] |  | IC50 [2]: 5 to 30 µM |

| Structure (SMILES) | IC50 [1] | other results |
| --- | --- | --- |
| CC(C)c1cc(F)cc(C(C)C)c1CC(=O)NS(=O)(=O)Cc1ccc(CN)cc1 [Compound 507] | > 100 µM |  |
| CC(C)c1cc(F)cc(C(C)C)c1CC(=O)NS(=O)(=O)Cc1cccc(C(C)(C)O)c1 [Compound 502] | > 100 µM |  |
| CC(C)c1cc(F)cc(C(C)C)c1CC(=O)NS(=O)(=O)CCc1ccccc1 [Compound 516] | > 30 µM |  |
| CN(C)CCCS(N)(=O)=NC(=O)Nc1c2c(cc3c1CCC3)CCC2 (stereo not shown) [Compound 144] |  | IC50 [2]: 5 to 30 µM |
| NS(=O)(=NC(=O)Nc1c2c(cc3c1CCC3)CCC2)C1CCCCC1 (stereo not shown) [Compound 148] |  | IC50 [4]: > 30 µM |
| CC(C)c1cc(C#N)cc(C(C)C)c1CC(=O)NS(=O)(=O)N1CCC(CN(C)C)CC1 [Compound 202B, 2-(4-cyano-2,6-diisopropylphenyl)-N-((4-((dimethylamino)methyl)piperidin-1-yl)sulfonyl) acetamide] |  | IC50 [5]: 5 to 30 µM |
| CC(CN(C)C)CS(N)(=O)=NC(=O)Nc1c2c(cc3c1CCC3)CCC2 (stereo not shown) [Compound 125, 3-(dimethylamino)-N′-((1,2,3,5,6,7-hexahydro-s-indacen-4-yl)carbamoyl)-2-methylpropane-1-sulfonimidamide] |  | IC50 [2]: 1 to 5 µM |
| CN1CCC(S(N)(=O)=NC(=O)Nc2c3c(cc4c2CCC4)CCC3)CC1 (stereo not shown) [Compound 137] | > 30 µM |  |
| CC1(S(N)(=O)=NC(=O)Nc2c3c(cc4c2CCC4)CCC3)CC1 (stereo not shown) [Compound 161] | > 30 µM |  |
| CC(C)c1cc(F)cc(C(C)C)c1CC(=O)NS(=O)(=O)Cc1cc(-c2ccccc2)no1 [Compound 519] | > 30 µM |  |
| NS(=O)(=NC(=O)Nc1c2c(cc3c1CCC3)CCC2)C1CCC1 (stereo not shown) [Compound 149, N′-((1,2,3,5,6,7-hexahydro-s-indacen-4-yl)carbamoyl) cyclobutane-sulfonimidamide] | > 30 µM |  |
| NS(=O)(=NC(=O)Nc1c2c(cc3c1CCC3)CCC2)C1CC1 (single isomer, unassigned) [Compound 155] |  | IC50 [2]: 5 to 30 µM |
| CC(C)c1cc(Cl)cc(C(C)C)c1NC(=O)NS(=O)(=O)CC(=O)c1ccsc1 [Compound 403] |  | IC50 [3]: 5 to 30 µM |
| CNS(C)(=O)=NC(=O)Nc1c2c(cc3c1CCC3)CCC2 (stereo not shown) [Compound 103, N′-((1,2,3,5,6,7-hexahydro-s-indacen-4-yl)carbamoy1)-N-methylmethane-sulfonimidamide] | > 30 µM |  |
| CN(C)Cc1ccc(CS(N)(=O)=NC(=O)Nc2c3c(cc4c2CCC4)CCC3)cc1 (single isomer, unassigned) [Compound 105] | > 30 µM |  |
| CC(C)c1cc(C#N)cc(C(C)C)c1CC(=O)NS(=O)(=O)N1CCC(C(C)(C)O)C1 (stereo not shown) [Compound 203B] |  | IC50 [5]: 5 to 30 µM |
| CC(C)c1cc(F)cc(C(C)C)c1CC(=O)NS(=O)(=O)CC(=O)O [Compound 503] | > 100 µM |  |
| NS(=O)(=NC(=O)Nc1c2c(cc3c1CCC3)CCC2)C1CCCCC1 (stereo not shown) [Compound 147] | > 30 µM |  |
| CS(N)(=O)=NC(=O)Nc1c2c(cc3c1CCC3)CCC2 (stereo not shown) [Compound 115, N′-((1,2,3,5,6,7-hexahydro-s-indacen-4-yl)carbamoyl) methane-sulfonimidamide] |  | IC50 [3]: 5 to 30 µM |
| CS(N)(=O)=NC(=O)Nc1c2c(cc3c1CCC3)CCC2 (single isomer, unassigned) [Compound 116] | > 30 µM |  |
| CN(C)CC1(S(N)(=O)=NC(=O)Nc2c3c(cc4c2CCC4)CCC3)CC1 (stereo not shown) [Compound 160] |  | IC50 [4]: > 30 µM |
